Measured values from patent publication US8809377B2, “Deubiquitinase inhibitors and methods for use of the same” (The Regents of the University of Michigan, priority 2010, dated 2014).
Entries after “also recorded” stand apart in the source; their conditions may differ.

Tests used:
[1] = molecular target: T1, 20S proteasome (Homo sapiens, UniProt P28074); test: Proteasome activity assay in treated cells (Suc-LLVY-AMC); assay type: cell-based; conditions: 5 μM, 2 hr
T1 construct: endogenous in cells; host or cells: K562 and other CML lines, Z138
Experimental: Fluorogenic substrate Suc-LLVY-AMC was used to assay for the chymotryptic-like activity of the 20S proteasome. To assay for in vivo proteasome inhibition cells were treated with WP1130 (5 μM) or MG132 (5 μM) for 2 hours and lysed in ice-cold lysis buffer (50 mM HEPES, pH 7.5, 5 mM EDTA, 150 mM NaCl, 1% Triton X-100). Lysates were clarified by centrifugation at 20,000 RCF for 10 min and equal amounts of protein from each sample were incubated at 37° C. with 100 μM fluorogenic substrate. To assay for direct inhibition of the 20S proteasome in vitro, purified 20S human proteasome (200 ng) was incubated with WP1130 (5 μM), MG132 (5 μM) or Lactacystin (5 μM) for 30 min at 37° C. before addition of the substrates. Fluorescence intensity was measured using a spectrophotometer at excitation 360 nm & emission 460 nm. Assays were performed in triplicate, and statistical significance was determined with a paired Student's t test.

[2] = molecular target: T2, USP14 (Homo sapiens, UniProt P54578); test: HA-UbVs labeling of USP14; assay type: cell-based; conditions: Z138 cells, 1, 5 or 10 μM, 1 hour
T2 construct: endogenous in cells; host or cells: Z138
Experimental: To assay for changes in activity of cellular deubiquitinase enzymes, Z138 and HEK293 cells were lysed in DUB buffer (50 mM Tris pH 7.4, 5 mM MgCl2, 150 mM NaCl) for 10 min at 4° C. The lysates were centrifuged at 20,000 RFC for 10 min and the supernatant was used for DUB labeling. Equal amounts of lysate were incubated with 500 ng of HA-UbVs for 1 hr at room temperature, followed by boiling in reducing sample buffer and resolving by SDS-PAGE. After protein transfer to nitrocellulose membranes, HA immunoblotting was used to detect DUB labeling.
Hemagglutinin-tagged ubiquitin vinyl methyl sulfone (HA-UbVs) acts as a DUB suicide substrate, forming a covalent adduct with active DUB enzymes. Specific cellular DUBs can be identified by anti-HA blotting, as previously shown in various cell types. Changes in specific DUB activities are measurable by monitoring HA-labeling in lysates from control and treated cells. Z138 cells were treated with WP1130 at 1, 5, or 10 μM or AG490 at 250 μM for 1 hours and lysed. 20 μg of clarified supernatant was incubated with 200 nM of HA-UbVS for 1 hr at 37° C. […] An in vitro analysis using cell lysates was performed to investigate direct DUB inhibition by WP1130. Briefly, untreated Z138 cell lysates were incubated with 5 μM WP1130 or vehicle alone for one hour at 37° C., followed by labeling with HA-UbVs.

[3] = system: Sindbis virus; test: Sindbis virus plaque assay; conditions: African green monkey epithelial cells (Vero), 5 μM, 30 min pre-treatment

T1 sequence (P28074 60-263): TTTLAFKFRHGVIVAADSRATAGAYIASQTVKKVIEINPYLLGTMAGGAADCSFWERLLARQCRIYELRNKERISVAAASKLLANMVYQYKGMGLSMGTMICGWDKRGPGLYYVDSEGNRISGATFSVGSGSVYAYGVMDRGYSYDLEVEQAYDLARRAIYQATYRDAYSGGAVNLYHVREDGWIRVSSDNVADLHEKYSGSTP
T2 sequence (P54578 whole entry): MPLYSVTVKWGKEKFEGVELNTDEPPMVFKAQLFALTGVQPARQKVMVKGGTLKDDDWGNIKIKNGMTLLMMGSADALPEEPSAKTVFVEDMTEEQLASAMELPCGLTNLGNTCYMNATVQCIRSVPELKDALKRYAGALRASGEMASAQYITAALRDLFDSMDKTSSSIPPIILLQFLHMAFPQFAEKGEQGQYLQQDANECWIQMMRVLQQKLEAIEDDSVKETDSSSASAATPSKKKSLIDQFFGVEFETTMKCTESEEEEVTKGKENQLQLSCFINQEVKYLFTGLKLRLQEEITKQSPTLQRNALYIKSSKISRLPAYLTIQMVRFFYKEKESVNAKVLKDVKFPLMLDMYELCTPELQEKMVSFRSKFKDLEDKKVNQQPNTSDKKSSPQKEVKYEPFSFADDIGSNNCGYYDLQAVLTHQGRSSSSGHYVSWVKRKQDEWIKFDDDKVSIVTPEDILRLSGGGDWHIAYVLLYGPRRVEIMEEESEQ

CCC[C@H](NC(=O)/C(C#N)=C/c1cccc(Br)n1)c1ccccc1 [WP1130]
20S proteasome chymotryptic-like activity in intact cells (in vivo) [1]: did not suppress; also recorded: no significant decline | HA-UbVS labeling of USP14 [2]: dose-dependent and time reduction in the labeling | Log inhibition by plaque assay [3]: 2-2.5 log | Log inhibition by plaque assay ([3]; listed as HWP1130): 2 log
